This is an account of results in paper PMC10304470, “Characterization of the Antimicrobial Activities of Trichoplusia ni Cecropin A as a High-Potency Therapeutic against Colistin-Resistant Escherichia coli” (Pharmaceutics, 2023).

Peptide text beside a SMILES is read from it.

One data set concerns RAW 264.7 cells. In words: Cytotoxicity, WST-8. Conditions: 100 μM peptide, 24 h. In kind it is cell-based, mouse. As to the method:
(§1) Murine macrophage RAW 264.7 cells and mouse fibroblast L-929 cells were used for research and were purchased from the Korea Cell Line Bank (Seoul, Republic of Korea). Both cells were cultured in Dulbecco’s Modified Eagle’s Medium (DMEM; Welgene, Gyeongsan, Republic of Korea) supplemented with 10% fetal bovine serum and 1% antibiotics (penicillin/streptomycin) at 37 °C in the presence of 5% CO2. To measure the cytotoxicities of peptides against RAW 264.7 cells and L-929 cells, both cell lines were seeded at a density of 1 × 10^5 cells/well in a 96-well plate, to which each concentration of peptide solution (from 1.6 μM to 100 μM) was added, followed by incubation for 22 h. Subsequently, WST-8 (Biomax Co., Ltd., Guri, Republic of Korea) was added at 10% volume of the final solution, and the mixture was incubated for an additional 2 h. Absorbance was measured at 450 nm. Percentages were calculated based on untreated cells.
For orientation: Tetrazolium dyes change colour on reduction, which living cells bring about.

In the next data set the test system is L-929 cells. Put plainly: Cytotoxicity, WST-8. Conditions: up to 100 μM peptide, 24 h. In kind it is cell-based, mouse. As to the method:
as §1

Data set [1] has as its system LPS-stimulated RAW 264.7 cells. In words: IL-6 secretion in LPS-stimulated macrophages, ELISA. It is filed as cell-based, mouse. The conditions noted are these: 5 μM peptide, 1 h pretreatment, 20 ng/mL LPS, 16 h. As to the method:
Murine macrophage RAW 264.7 cells were used to measure the anti-inflammatory activities of peptides. Culture plates (96-well) were seeded at a density of 1 × 10^5 cells/well and stimulated with 20 ng/mL LPS (O111:B4; Sigma-Aldrich) for 16 h after 1 h pretreatment with each concentration of peptide (0.6 to 10 μM). The control is an untreated cell. The culture supernatant was added to an equal volume of Griess reagent (Sigma-Aldrich), and the absorbance was measured at 540 nm. Nitrite production was quantified using a standard curve constructed using NaNO2.
(§2) Interleukin-6 (IL-6)-specific enzyme-linked immunosorbent assays (ELISA; R&D Systems, Minneapolis, MN, USA) were performed according to the method specified by the manufacturer. Briefly, cell culture supernatants were added to immune plates treated with the capture antibody, followed by the detection antibody and streptavidin-horseradish peroxidase. For each step, the plates were washed twice with PBS containing 0.05% Tween 20. The plates were incubated with tetramethylbenzidine substrate (Invitrogen, Carlsbad, CA, USA), and the reaction was stopped with 2 N H2SO4 to measure absorbance at 450 nm. A standard graph of each marker was plotted and quantified.
On the technique in general: An ELISA detects its analyte on a solid surface through an enzyme-linked reagent.

The subject of the next data set is all bacterial strains. Put plainly: Average MIC over all strains and relative selective index. In kind it is cell-based. The conditions noted are these: 8 strains; MIC above 64 μM taken as 128 μM. As to the method:
(§3) The antibacterial abilities of the peptides (T. ni cecropin, cecropin A, polymyxin B, colistin, and melittin) were determined using the broth dilution method as previously reported. The peptides dissolved at 10 mg/mL in deionized water were serially diluted from 64 μM to 0.5 μM in 96-well plates using Mueller–Hinton (MH) broth, and bacteria cultured to exponential growth were added at 2 × 10^5 cells/mL. The group of bacteria that grew untreated in the broth was set as the positive control, and the uninoculated broth as the negative control. Dissolved peptides are colorless and equal to the OD value of the medium only. After 16 h incubation at 37 °C, the absorbance at 600 nm was measured using a SpectraMAX microplate reader (Molecular Devices, San Jose, CA, USA).

The subject of data set [2] is ColREC 1557-stimulated RAW 264.7 cells. In words: Nitrite (NO) production in ColREC 1557-infected macrophages. It is filed as cell-based, mouse. The conditions noted are these: 1.3 μM peptide, 1 h before ColREC 1557 infection. Here is the method: (§4) To investigate the inflammatory response induced by ColREC 1557, RAW 264.7 cells (1 × 10^5 cells/well) were treated with various concentrations of peptide (0.6 to 10 μM) 1 h before bacterial infection. The control was an untreated cell. ColREC 1557 that had been cultured in LB broth overnight and sub-cultured to the exponential phase were harvested, suspended in DMEM, and used to infect RAW 264.7 cells to a final concentration of 1 × 10^5 cells/well. Subsequent nitrite and IL-6 detection was performed as described in Section 2.15.

Another data set has as its system ColREC 12. In words: Biofilm inhibition assay, crystal violet. In kind it is cell-based, Escherichia coli. Conditions: ColREC 12, 2 μM peptide, 16 h. Here is the method:
To quantify the biofilm inhibitory activity of each peptide, ColREC 1557 and ColREC 12 were cultured in Luria–Bertani (LB) broth overnight and then sub-cultured in MH broth. Different concentrations of peptide (from 1 μM to 64 μM) were prepared in 96-well plates using MH broth (containing 0.2% glucose) and incubated with bacteria (2 × 10^5 cells/mL) at 37 °C for 16 h. After incubation, the culture medium was removed and methanol was added as a fixative for 15 min. The completely dried plates were stained for 2 h by adding 100 μL of staining solution (0.1% (w/v) crystal violet in 0.25% (v/v) acetic acid). The residual staining solution was gently rinsed off three times using distilled water. Subsequently, 90% ethanol was used to dissolve the dye, and absorbance was measured at 600 nm. The untreated bacterial group was used as a control to compare biofilm production rates.

Data set [3] deals with ColREC 1557-stimulated RAW 264.7 cells. Put plainly: IL-6 secretion in ColREC 1557-infected macrophages, ELISA. In kind it is cell-based, mouse. The conditions noted are these: 1.3 μM peptide, 1 h before ColREC 1557 infection. As to the method: as §2, §4
Data set [4] has as its system colistin-resistant K. pneumoniae NMS 139 (ColRKP 139). It is filed as cell-based, Klebsiella pneumoniae. The conditions noted are these: MH broth, 2 × 10^5 cells/mL, 16 h, 37 °C, OD600, >95% killing.
From the text: (§5) E. coli (KCTC 1682) was obtained from the Korean Collection for Type Cultures (KCTC, Jeongeup, Republic of Korea), and Acinetobacter baumannii (KCCM 40203) and Pseudomonas aeruginosa (KCCM 11328) from the Korea Culture Center of Microorganisms (KCCM, Seoul, Republic of Korea). Klebsiella pneumoniae (NCCP 16054), colistin-resistant E. coli NMA 1557 (ColREC 1557), NMS 12 (ColREC 12), and colistin-resistant A. baumannii NMS 1915 (ColRAB 1915), as well as colistin-resistant K. pneumoniae NMS 139 (ColRKP 139), were obtained from the National Institute of Health Multidrug Resistant Bacteria Specialized Pathogen Resources Bank (Osong, Republic of Korea).
as §3

Data set [5] relates to colistin-resistant A. baumannii NMS 1915 (ColRAB 1915). Conditions: MH broth, 2 × 10^5 cells/mL, 16 h, 37 °C, OD600, >95% killing.
From the text: as §5
The peptides dissolved at 10 mg/mL in deionized water were serially diluted from 64 μM to 0.5 μM in 96-well plates using Mueller–Hinton (MH) broth, and bacteria cultured to exponential growth were added at 2 × 10^5 cells/mL. The group of bacteria that grew untreated in the broth was set as the positive control, and the uninoculated broth as the negative control. Dissolved peptides are colorless and equal to the OD value of the medium only. After 16 h incubation at 37 °C, the absorbance at 600 nm was measured using a SpectraMAX microplate reader (Molecular Devices, San Jose, CA, USA).

In general, cell viability refers to a per cent measure of how many cells are alive, often set against a control. A high value points to better survival. The compound `CC[C@H](C)CCCCC(=O)N[C@@H](CCN)C(=O)N[C@H](C(=O)N[C@@H](CCN)C(=O)N[C@H]1CCNC(=O)[C@H]([C@@H](C)O)NC(=O)[C@H](CCN)NC(=O)[C@H](CCN)NC(=O)[C@H](CC(C)C)NC(=O)[C@@H](CC(C)C)NC(=O)[C@H](CCN)NC1=O)[C@@H](C)O` [colistin] (HELM PEPTIDE1{[CC[C@H](C)CCCCC(=O)[*:2]].[Dab].T.[Dab].[Dab].[Dab].[dL].L.[Dab].[Dab].T}$PEPTIDE1,PEPTIDE1,5:R3-11:R2$$$V2.0; N-terminus assumed; bridges inferred) displayed a cell viability with RAW 264.7 cells of 70.1%. In addition, the “viability / survival rate” value in the data set on L-929 cells worked out at 95.0%. Moreover, the “inhibition of IL-6 secretion” value in data set [1] is recorded as “over 90%”. Further, the “GM (geometric mean, average MIC value of all bacterial strains)” value with all bacterial strains was found to be 33.72 µM. Moreover, the “inhibition of NO” value in data set [2] turned out to be 24.7%. The “inhibition of biofilm formation” value in the data set with ColREC 12 is 28.9%. Further, the “inhibition of IL-6” value in data set [3] turned out to be 18.4%. Besides, the “Minimal Inhibitory Concentration” value in data set [4] and in [5] was greater than 64 µM throughout.
